Source: patent US20180320217A1, “METHODS FOR SAMPLING AND MEASURING ORAL LAVAGE PROTEINS” (The Procter & Gamble Company, priority 2017, published 2018)
“And” between values parts separate entries of the source, which are not always exact repeats. Equal entries are not always repeated. “Also recorded” adds a separate entry of the source.

Columns and labels:
diaphorase [1] = experiment: Effect of concentrations of tetrazolium salts on formation of formazan dyes (FIGS. 4A-4G); type: biochemical; details: 15 mM NADH+H, 20 μg diaphorase, pH 7.5; FIGS. 4A to 4G
Experimental: On the idea that higher concentrations of tetrazolium salts in the assay buffer would likely result in more formazan dyes in the reaction, various concentrations of tetrazolium salts were added to a reaction buffer and the formation of formazan dyes were measured at 0, 30 and 60 minutes. […] The reactions were performed at room temperature. Absorbance was taken at 0, 30 and 60 minutes.

[2] = tested on: Malate dehydrogenase and diaphorase; experiment: Formation of formazan dyes: Malate dehydrogenase and diaphorase, absence of malate (TABLE 9); type: biochemical, pig heart
[3] = Formation of formazan dyes: NADH, malate and 1-methoxy PMS (TABLE 16); type: biochemical; details: monosodium salt
Malate dehydrogenase [4] = molecular target: T1, Malate dehydrogenase (Sus scrofa, UniProt P00346); experiment: Formation of formazan dyes: Malate dehydrogenase and 1-Methoxy PMS, absence of malate (TABLE 17); type: biochemical, pig heart; design: L-malate dehydrogenase (pig heart); purchased Sigma-Aldrich 10127248001 / 10127914001
T1 sequence (P00346 25-338): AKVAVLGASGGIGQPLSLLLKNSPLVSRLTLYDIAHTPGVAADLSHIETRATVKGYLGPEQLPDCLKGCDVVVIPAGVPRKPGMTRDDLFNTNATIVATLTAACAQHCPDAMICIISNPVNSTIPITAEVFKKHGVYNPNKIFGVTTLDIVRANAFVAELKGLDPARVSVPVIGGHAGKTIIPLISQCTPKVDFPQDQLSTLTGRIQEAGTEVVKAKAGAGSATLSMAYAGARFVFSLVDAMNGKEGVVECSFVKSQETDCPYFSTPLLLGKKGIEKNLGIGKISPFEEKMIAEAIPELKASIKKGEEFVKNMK

Malate dehydrogenase [5] = molecular target: T1, Malate dehydrogenase; experiment: Formation of formazan dyes: Malate dehydrogenase, malate and 1-Methoxy PMS (TABLE 18); type: biochemical, pig heart; design: L-malate dehydrogenase (pig heart); purchased Sigma-Aldrich 10127248001 / 10127914001; details: monosodium salt
oral lavage [6] = experiment: Formation of formazan dyes: oral lavage, malate and 1-Methoxy PMS (TABLE 20); type: biochemical, human; details: monosodium salt
diaphorase [7] = experiment: Formation of formazan dyes: only diaphorase and malate (TABLE 14); type: biochemical, Clostridium kluyveri; details: mean of three experiments
diaphorase [8] = experiment: Formation of formazan dyes: NADH and diaphorase, absence of malate (TABLE 7); type: biochemical, Clostridium kluyveri; details: NADH and diaphorase, absence of malate
[9] = Formation of formazan dyes: control buffer, malate and 1-Methoxy PMS (TABLE 22); type: biochemical
[10] = tested on: Malate dehydrogenase and diaphorase; experiment: Formation of formazan dyes: Malate dehydrogenase, diaphorase and malate (TABLE 10); type: biochemical, pig heart
oral lavage [11] = experiment: Formation of formazan dyes: oral lavage, malate and diaphorase (TABLE 12); type: biochemical, human; details: oral lavage, malate and diaphorase
oral lavage [12] = experiment: Formation of formazan dyes: oral lavage and diaphorase, not malate (TABLE 11); type: biochemical, human
[13] = Formation of formazan dyes: NADH and 1-methoxy PMS, absence of malate (TABLE 15); type: biochemical; details: monosodium salt
oral lavage [14] = experiment: Formation of formazan dyes: oral lavage and 1-Methoxy PMS, absence of malate (TABLE 19); type: biochemical, human; details: monosodium salt
diaphorase [15] = experiment: Formation of formazan dyes: only diaphorase, not malate (TABLE 13); type: biochemical, Clostridium kluyveri; details: mean of three experiments
[16] = Formation of formazan dyes: control buffer and 1-Methoxy PMS, absence of malate (TABLE 21); type: biochemical; details: monosodium salt
diaphorase [17] = experiment: Formation of formazan dyes: NADH, diaphorase and malate (TABLE 8); type: biochemical, Clostridium kluyveri

COc1cc([N+](=O)[O-])ccc1-[n+]1nc(-c2ccccc2S(=O)(=O)O)nn1-c1ccc([N+](=O)[O-])cc1 [EZMTT]
concentration of tetrazolium salt at which absorbance reached peaks (diaphorase [1]): 2 mM

O=[N+]([O-])c1ccc(-[n+]2nc(-c3ccc(S(=O)(=O)[O-])cc3S(=O)(=O)[O-])nn2-c2ccc(I)cc2)cc1.[Na+] [WST-1, 2-(4-Iodophenyl)-3-(4-nitrophenyl)-5-(2,4-disulfophenyl)-2H-tetrazolium, monosodium salt]
Formation of formazan dyes, absorbance, Means 0 h ([2]; Malate dehydrogenase and diaphorase, absence of malate, 0 h): 0.76
Formation of formazan dyes, absorbance, Means 1 h ([2]; Malate dehydrogenase and diaphorase, absence of malate, 1 h): 1.13
Formation of formazan dyes, absorbance, Means 2 h ([2]; Malate dehydrogenase and diaphorase, absence of malate, 2 h): 1.28
Formation of formazan dyes, absorbance, Means 3 h ([2]; Malate dehydrogenase and diaphorase, absence of malate, 3 h): 1.38
Formation of formazan dyes, absorbance, Means 4 h ([2]; Malate dehydrogenase and diaphorase, absence of malate, 4 h): 1.47
Formation of formazan dyes, absorbance, Means 6 h ([2]; Malate dehydrogenase and diaphorase, absence of malate, 6 h): 1.60
Formation of formazan dyes, absorbance, Means 8 h ([2]; Malate dehydrogenase and diaphorase, absence of malate, 8 h): 1.71
Formation of formazan dyes, absorbance, Means 10 h ([2]; Malate dehydrogenase and diaphorase, absence of malate, 10 h): 1.78
Formation of formazan dyes, absorbance, Means 12 h ([2]; Malate dehydrogenase and diaphorase, absence of malate, 12 h): 1.75
reduction of tetrazolium dye in the absence of substrate malate ([2]; malate dehydrogenase and diaphorase (TABLE 9)): partially reduced
Absorbance, formation of formazan dyes (Means) [3]: 1.83 and 1.81 and 1.79
reduction by malate dehydrogenase alone (Malate dehydrogenase [4]): did not catalyze the reduction
Absorbance, formation of formazan dyes (Means) (Malate dehydrogenase [4]; monosodium salt): 0.51 and 0.71 and 0.59 and 0.90
Absorbance, formation of formazan dyes (Means) (Malate dehydrogenase [5]): 0.51 and 0.64 and 0.72 and 0.79
Absorbance, formation of formazan dyes (Means) (oral lavage [6]): 1.20 and 1.68 and 2.01 and 2.32
Absorbance, formation of formazan dyes (Means) (diaphorase [7]; 0 h): 0.20
Absorbance, formation of formazan dyes (Means) (diaphorase [7]; 1 h): 0.22
Absorbance, formation of formazan dyes (Means) (diaphorase [7]; 2 h): 0.23
Absorbance, formation of formazan dyes (Means) (diaphorase [7]; 3 h): 0.24
Absorbance, formation of formazan dyes (Means) (diaphorase [7]; 4 h): 0.24
Absorbance, formation of formazan dyes (Means) (diaphorase [7]; 6 h): 0.25
Absorbance, formation of formazan dyes (Means) (diaphorase [7]; 8 h): 0.26
Absorbance, formation of formazan dyes (Means) (diaphorase [7]; 10 h): 0.27
Absorbance, formation of formazan dyes (Means) (diaphorase [7]; 12 h): 0.27
Formation of formazan dyes, absorbance, Means 0 h (diaphorase [8]; 0 h): 3.54
Formation of formazan dyes, absorbance, Means 1 h (diaphorase [8]; 1 h): 3.60
Formation of formazan dyes, absorbance, Means 2 h (diaphorase [8]; 2 h): 3.59
Formation of formazan dyes, absorbance, Means 3 h (diaphorase [8]; 3 h): 3.60
Formation of formazan dyes, absorbance, Means 4 h (diaphorase [8]; 4 h): 3.59
Formation of formazan dyes, absorbance, Means 6 h (diaphorase [8]; 6 h): 3.59
Formation of formazan dyes, absorbance, Means 8 h (diaphorase [8]; 8 h): 3.55
Formation of formazan dyes, absorbance, Means 10 h (diaphorase [8]; 10 h): 3.52
Formation of formazan dyes, absorbance, Means 12 h (diaphorase [8]; 12 h): 3.45
Means absorbance 0 h [9]: 0.31
Means absorbance 1 h [9]: 0.31
Means absorbance 2 h [9]: 0.32
Means absorbance 3 h [9]: 0.32
Formation of formazan dyes, absorbance, Means 0 h ([10]; Malate dehydrogenase, diaphorase and malate, 0 h): 0.84
Formation of formazan dyes, absorbance, Means 1 h ([10]; Malate dehydrogenase, diaphorase and malate, 1 h): 1.15
Formation of formazan dyes, absorbance, Means 2 h ([10]; Malate dehydrogenase, diaphorase and malate, 2 h): 1.31
Formation of formazan dyes, absorbance, Means 3 h ([10]; Malate dehydrogenase, diaphorase and malate, 3 h): 1.44
Formation of formazan dyes, absorbance, Means 4 h ([10]; Malate dehydrogenase, diaphorase and malate, 4 h): 1.53
Formation of formazan dyes, absorbance, Means 6 h ([10]; Malate dehydrogenase, diaphorase and malate, 6 h): 1.69
Formation of formazan dyes, absorbance, Means 8 h ([10]; Malate dehydrogenase, diaphorase and malate, 8 h): 1.81
Formation of formazan dyes, absorbance, Means 10 h ([10]; Malate dehydrogenase, diaphorase and malate, 10 h): 1.90
Formation of formazan dyes, absorbance, Means 12 h ([10]; Malate dehydrogenase, diaphorase and malate, 12 h): 1.96
conversion to reduced formazan dyes ([10]; malate dehydrogenase, diaphorase and malate (TABLE 10), monosodium salt): converted to reduced formazan dyes in a time-dependent fashion; also recorded: able to catalyze the reduction
Formation of formazan dyes, absorbance, Means 0 h (oral lavage [11]; 0 h): 0.88
Formation of formazan dyes, absorbance, Means 1 h (oral lavage [11]; 1 h): 1.19
Formation of formazan dyes, absorbance, Means 2 h (oral lavage [11]; 2 h): 1.19
Formation of formazan dyes, absorbance, Means 3 h (oral lavage [11]; 3 h): 1.23
Formation of formazan dyes, absorbance, Means 4 h (oral lavage [11]; 4 h): 1.39
Formation of formazan dyes, absorbance, Means 6 h (oral lavage [11]; 6 h): 1.31
Formation of formazan dyes, absorbance, Means 8 h (oral lavage [11]; 8 h): 1.52
Formation of formazan dyes, absorbance, Means 10 h (oral lavage [11]; 10 h): 1.61
Formation of formazan dyes, absorbance, Means 12 h (oral lavage [11]; 12 h): 1.75
Formation of formazan dyes, absorbance, Means 0 h (oral lavage [12]; oral lavage and diaphorase, not malate, 0 h): 1.01
Formation of formazan dyes, absorbance, Means 1 h (oral lavage [12]; oral lavage and diaphorase, not malate, 1 h): 1.24
Formation of formazan dyes, absorbance, Means 2 h (oral lavage [12]; oral lavage and diaphorase, not malate, 2 h): 1.28
Formation of formazan dyes, absorbance, Means 3 h (oral lavage [12]; oral lavage and diaphorase, not malate, 3 h): 1.30
Formation of formazan dyes, absorbance, Means 4 h (oral lavage [12]; oral lavage and diaphorase, not malate, 4 h): 1.29
Formation of formazan dyes, absorbance, Means 6 h (oral lavage [12]; oral lavage and diaphorase, not malate, 6 h): 1.42
Formation of formazan dyes, absorbance, Means 8 h (oral lavage [12]; oral lavage and diaphorase, not malate, 8 h): 1.34
Formation of formazan dyes, absorbance, Means 10 h (oral lavage [12]; oral lavage and diaphorase, not malate, 10 h): 1.31
Formation of formazan dyes, absorbance, Means 12 h (oral lavage [12]; oral lavage and diaphorase, not malate, 12 h): 1.42
reduction to formazan dyes by pooled oral lavage (oral lavage [12]; pooled oral lavage of high bleeder group, diaphorase, no added malate (TABLE 11)): partially reduced to formazan dyes
Absorbance, formation of formazan dyes (Means) [13]: 2.52 and 2.71 and 2.59 and 2.80
Absorbance, formation of formazan dyes (Means) (oral lavage [14]): 1.19 and 1.52 and 1.61 and 1.76
Absorbance, formation of formazan dyes (Means) (diaphorase [15]; 0 h): 0.41
Absorbance, formation of formazan dyes (Means) (diaphorase [15]; 1 h): 0.60
Absorbance, formation of formazan dyes (Means) (diaphorase [15]; 2 h): 0.66
Absorbance, formation of formazan dyes (Means) (diaphorase [15]; 3 h): 0.69
Absorbance, formation of formazan dyes (Means) (diaphorase [15]; 4 h): 0.70
Absorbance, formation of formazan dyes (Means) (diaphorase [15]; 6 h): 0.71
Absorbance, formation of formazan dyes (Means) (diaphorase [15]; 8 h): 0.73
Absorbance, formation of formazan dyes (Means) (diaphorase [15]; 10 h): 0.69
Absorbance, formation of formazan dyes (Means) (diaphorase [15]; 12 h): 0.67
Absorbance, formation of formazan dyes (Means) [16]: 0.53 and 0.74 and 0.65 and 0.88
Formation of formazan dyes, absorbance, Means 0 h (diaphorase [17]; NADH, diaphorase and malate, 0 h): 2.63
Formation of formazan dyes, absorbance, Means 1 h (diaphorase [17]; NADH, diaphorase and malate, 1 h): 2.60
Formation of formazan dyes, absorbance, Means 2 h (diaphorase [17]; NADH, diaphorase and malate, 2 h): 2.59
Formation of formazan dyes, absorbance, Means 3 h (diaphorase [17]; NADH, diaphorase and malate, 3 h): 2.57
Formation of formazan dyes, absorbance, Means 4 h (diaphorase [17]; NADH, diaphorase and malate, 4 h): 2.55
Formation of formazan dyes, absorbance, Means 6 h (diaphorase [17]; NADH, diaphorase and malate, 6 h): 2.52
Formation of formazan dyes, absorbance, Means 8 h (diaphorase [17]; NADH, diaphorase and malate, 8 h): 2.48
Formation of formazan dyes, absorbance, Means 10 h (diaphorase [17]; NADH, diaphorase and malate, 10 h): 2.44
Formation of formazan dyes, absorbance, Means 12 h (diaphorase [17]; NADH, diaphorase and malate, 12 h): 2.38
level reduced to formazan dyes in the presence of malate (diaphorase [17]; TABLE 8 compared with TABLE 7): lower level
